The first assay deals with T1, DDR1 (Homo sapiens (Human), UniProt Q08345). The assay can be described thus: Measurement of DDR1 enzyme inhibitory activity (phosphorylation of biotinylated peptide, time-resolved fluorescence). The class given is biochemical. To be noted: human DDR1 enzyme, biotinylated peptide phosphorylation; read-out: DDR1 enzyme inhibition assay IC50. Summed up:
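Baculovirus-expressed human DDR1 phosphorylated a biotinylated peptide, and inhibition of that phosphorylation was measured. Phosphopeptide was detected by time-resolved fluorescence using europium cryptate–labelled anti-phosphotyrosine antibody with streptavidin-XL665.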
T1 sequence (Q08345 19-913): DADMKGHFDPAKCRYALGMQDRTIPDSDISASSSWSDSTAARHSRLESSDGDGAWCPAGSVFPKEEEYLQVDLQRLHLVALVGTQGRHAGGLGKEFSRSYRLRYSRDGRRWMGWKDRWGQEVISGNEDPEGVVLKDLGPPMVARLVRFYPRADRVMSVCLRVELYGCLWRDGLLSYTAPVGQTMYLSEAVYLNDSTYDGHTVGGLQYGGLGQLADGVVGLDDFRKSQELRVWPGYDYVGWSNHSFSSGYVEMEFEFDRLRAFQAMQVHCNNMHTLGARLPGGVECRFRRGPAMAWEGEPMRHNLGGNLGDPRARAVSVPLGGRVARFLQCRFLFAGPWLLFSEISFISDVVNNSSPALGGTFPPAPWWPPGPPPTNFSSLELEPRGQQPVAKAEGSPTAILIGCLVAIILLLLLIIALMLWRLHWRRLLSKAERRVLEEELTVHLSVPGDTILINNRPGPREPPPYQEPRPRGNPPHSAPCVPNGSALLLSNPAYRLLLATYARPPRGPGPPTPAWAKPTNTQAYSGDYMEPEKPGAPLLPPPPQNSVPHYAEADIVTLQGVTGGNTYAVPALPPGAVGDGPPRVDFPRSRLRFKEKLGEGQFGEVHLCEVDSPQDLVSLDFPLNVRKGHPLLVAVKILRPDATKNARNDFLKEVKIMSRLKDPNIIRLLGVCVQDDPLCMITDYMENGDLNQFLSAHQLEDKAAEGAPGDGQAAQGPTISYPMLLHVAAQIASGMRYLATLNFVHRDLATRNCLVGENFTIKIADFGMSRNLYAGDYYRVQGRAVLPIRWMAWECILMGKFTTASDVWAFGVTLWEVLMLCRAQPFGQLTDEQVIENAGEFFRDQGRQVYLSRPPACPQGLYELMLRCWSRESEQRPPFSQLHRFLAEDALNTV
For the compound `CCSc1ccc(Cl)cc1Cn1cnc2c(Br)cc(C)cc2c1=O` [Compound E-1, 8-Bromo-3-[(5-chloro-2-ethylsulfanylphenyl)methyl]-6-methylquinazolin-4-one], the IC50 was 640 nM.

In the case of `CCS(=O)(=O)c1ccc(Cl)cc1Cn1cnc2c(Br)cc(C)cc2c1=O` [Compound E-2, 8-Bromo-3-[(5-chloro-2-ethylsulfonylphenyl)methyl]-6-methylquinazolin-4-one], the half-inhibitory concentration (IC50) is 600 nM.

`CCSc1ccc(Cl)cc1Cn1cnc2ccc(OC(F)(F)F)cc2c1=O` [Compound E-3, 3-[(5-Chloro-2-ethylsulfanylphenyl)methyl]-6-(trifluoromethoxy)quinazolin-4-one]: the half-maximal inhibitory concentration (IC50) was 480 nM. The same measure, in the same setting: in the case of `CCSc1ccc(Cl)cc1Cn1cnc2cc(C)c(Br)cc2c1=O` [Compound E-5, 6-Bromo-3-[(5-chloro-2-ethylsulfanylphenyl)methyl]-7-methylquinazolin-4-one] it was 950 nM; in that of `CCS(=O)(=O)c1ccc(Cl)cc1Cn1cnc2cc(C)c(Br)cc2c1=O` [Compound E-6, 6-Bromo-3-[(5-chloro-2-ethylsulfonylphenyl)methyl]--7-methylquinazolin-4-one], 1100 nM. Still for that read-out and setting: the figure for `CCSc1ccc(Cl)cc1Cn1cnc2cc(C)c(I)cc2c1=O` [Compound E-7, 3-[(5-Chloro-2-ethylsulfanylphenyl)methyl]-6-iodo-7-methylquinazolin-4-one] is 790 nM. Still for that read-out and setting: the figure for `CCS(=O)(=O)c1ccc(Cl)cc1Cn1cnc2cc(C)c(I)cc2c1=O` [Compound E-8, 3-[(5-Chloro-2-ethylsulfonylphenyl)methyl]-6-iodo-7-methylquinazolin-4-one] is 200 nM. `CCSc1ccc(Cl)cc1Cn1cnc2c(Br)cc(C(F)(F)F)cc2c1=O` [Compound E-9, 8-Bromo-3-[(5-chloro-2-ethylsulfanylphenyl)methyl]-6-(trifluoromethyl)quinazolin-4-one]: the IC50 came out at 590 nM. Same read-out and setting: the figure for `CCSc1ccc(Cl)cc1Cn1cnc2c(Br)cc(OC(F)(F)F)cc2c1=O` [Compound E-11, 8-bromo-3-[(5-chloro-2-ethylsulfanylphenyl)methyl]-6-(trifluoromethoxy)quinazolin-4-one] is 540 nM. Same read-out and setting: in the case of `CCS(=O)(=O)c1ccc(Cl)cc1Cn1cnc2c(Br)cc(OC(F)(F)F)cc2c1=O` [Compound E-12, 8-Bromo-3-[(5-chloro-2-ethylsulfonylphenyl)methyl]-6-(trifluoromethoxy)quinazolin-4-one] it was 390 nM; in that of `CCS(=O)(=O)c1ccc(Cl)cc1Cn1cnc2c(Cl)cc(OC(F)(F)F)cc2c1=O` [Compound E-14, 8-Chloro-3-[(5-chloro-2-ethylsulfonylphenyl)methyl]-6-(trifluoromethoxy)quinazolin-4-one], 120 nM. Still for that read-out and setting: in the case of `CCSc1ccc(Cl)cc1Cn1cnc2ccc(C(F)(F)F)cc2c1=O` [Compound E-15, 3-[(5-Chloro-2-ethylsulfanylphenyl)methyl]-6-(trifluoromethyl)quinazolin-4-one] it was 450 nM; in that of `CCS(=O)(=O)c1ccc(Cl)cc1Cn1cnc2c(Br)c(C)c(Br)cc2c1=O` [Compound E-17, 6,8-Dibromo-3-[(5-chloro-2-ethylsulfonylphenyl)methyl]-7-methylquinazolin-4-one], 150 nM; in that of `CCS(=O)(=O)c1ccc(C#N)cc1Cn1cnc2ccc(C(F)(F)F)cc2c1=O` [Compound E-28, 4-Ethylsulfonyl-3-[[4-oxo-6-(trifluoromethyl)quinazolin-3-yl]methyl]benzonitrile], 630 nM. Turning to `CCS(=O)(=O)c1ccc(Cl)cc1Cn1ccc2ccc(OC)cc2c1=O` [Compound F-3, 2-[(5-Chloro-2-ethylsulfonylphenyl)methyl]-7-methoxyisoquinolin-1-one], the IC50 stood at 490 nM. `CCS(=O)(=O)c1ccc([N+](=O)[O-])cc1Cn1ccc2ccc(C(F)(F)F)cc2c1=O` [Compound F-6, 2-[(2-Ethylsulfonyl-5-nitrophenyl)methyl]-7-(trifluoromethyl)isoquinolin-1-one]: the IC50 was 490 nM. The same measure, in the same setting: the figure for `CCS(=O)(=O)c1ccc(N)cc1Cn1ccc2ccc(C(F)(F)F)cc2c1=O` [Compound F-7, 2-[(5-Amino-2-ethylsulfonylphenyl)methyl]-7-(trifluoromethyl)isoquinolin-1-one] is 2080 nM; for `CCS(=O)(=O)c1ccc([N+](=O)[O-])cc1Cn1ccc2ccc(OC(F)(F)F)cc2c1=O` [Compound F-9, 2-[(2-Ethylsulfonyl-5-nitrophenyl)methyl]-7-(trifluoromethoxy)isoquinolin-1-one] it is 810 nM; for `CCS(=O)(=O)c1ccc(N)cc1Cn1ccc2ccc(OC(F)(F)F)cc2c1=O` [Compound F-10, 2-[(5-Amino-2-ethylsulfonylphenyl)methyl]-7-(trifluoromethoxy)isoquinolin-1-one] it is 1340 nM. Same read-out and setting: the figure for `CCS(=O)(=O)c1ccc(C#N)cc1Nn1cnc2cc(CN3CCOCC3)c(OC(F)(F)F)cc2c1=O` [Compound G-8, 4-Ethylsulfonyl-3-[[7-(morpholin-4-ylmethyl)-4-oxo-6-(trifluoromethoxy)quinazolin-3-yl]amino]benzonitrile] is 680 nM; for `CCS(=O)(=O)c1ccc(C#N)cc1Nn1cnc2cc(CN3CCNCC3)c(Br)cc2c1=O` [Compound H-41, 3-[[6-Bromo-4-oxo-7-(piperazin-1-ylmethyl)quinazolin-3-yl]amino]-4-ethylsulfonylbenzonitrile] it is 250 nM.

The same assay, now with this note: read-out: DDR1 enzyme inhibition assay IC50.
Regarding `CCS(=O)(=O)c1ccc(Cl)cc1Cn1cnc2cc(CN3CC[C@@H](N)C3)c(Br)cc2c1=O` [Compound J-7, 7-[[(3R)-3-aminopyrrolidin-1-yl]methyl]-6-bromo-3-[(5-chloro-2-ethylsulfonylphenyl)methyl]quinazolin-4-one], the concentration for half-maximal inhibition (IC50) worked out at 170 nM. On the same count and under the same terms, in the case of `CCS(=O)(=O)c1ccc(Cl)cc1Cn1cnc2cc(CN3CC[C@H](N)C3)c(Br)cc2c1=O` [Compound J-8, 7-[[(3S)-3-Aminopyrrolidin-1-yl]methyl]-6-bromo-3-[(5-chloro-2-ethylsulfonylphenyl)methyl]quinazolin-4-one] it was 140 nM; in that of `CCS(=O)(=O)c1ccc(Cl)cc1Cn1cnc2cc(CN3CCC(N4CCCCC4)C3)c(Br)cc2c1=O` (stereo not shown) [Compound J-9, 6-Bromo-3-[(5-chloro-2-ethylsulfonylphenyl)methyl]-7-[(3-piperidin-1-ylpyrrolidin-1-yl)methyl]quinazolin-4-one], 120 nM; in that of `CCS(=O)(=O)c1ccc(Cl)cc1Cn1cnc2c(Br)c(CN3CCNCC3)c(Br)cc2c1=O` [Compound L-11, 6,8-Dibromo-3-[(5-chloro-2-ethylsulfonylphenyl)methyl]-7-(piperazin-1-ylmethyl)quinazolin-4-one], 90 nM. In the case of `CCS(=O)(=O)c1ccc(Cl)cc1Cn1cnc2c(Br)c(CN3CCN(C(C)C)CC3)c(Br)cc2c1=O` [Compound L-12, 6,8-Dibromo-3-[(5-chloro-2-ethylsulfonylphenyl)methyl]-7-[(4-propan-2-ylpiperazin-1-yl)methyl]quinazolin-4-one], the half-maximal inhibitory concentration (IC50) was 200 nM.

The next assay deals with T1, DDR1. The assay can be described thus: Measurement of DDR1 binding activity (LanthaScreen Eu Kinase Binding Assay).
Details: not given
The method, then: 2. Measurement of DDR1 Binding Activity
DDR1 binding activity was measured using the LanthaScreen (Registered trademark) Eu Kinase Binding Assay (manufactured by Life Technologies Corporation). […] After one-hour reaction at room temperature, the fluorescence resonance energy transfer was measured.
Compound `CCS(=O)(=O)c1ccc(Cl)cc1Cn1cnc2c(Cl)c(CO)c(C(F)(F)F)cc2c1=O` [Compound K-26, 8-Chloro-3-[(5-chloro-2-ethylsulfonylphenyl)methyl]-7-(hydroxymethyl)-6-(trifluoromethyl)quinazolin-4-one] yielded a 50% inhibitory concentration (IC50) of 240 nM.

Another assay deals with human endometrial cancer cell line MFE-280. The assay can be described thus: Measurement of antitumor effect in MFE-280 cancer-bearing nude mice. The class given is in vivo. To be noted: MFE-280 xenograft in BALB/c nude mice, 200 mg/kg orally once daily, 11th day.
`CCS(=O)(=O)c1ccc(Cl)cc1Nn1cnc2ccc(OC(F)(F)F)cc2c1=O` [Compound A-45, 3-(5-Chloro-2-ethylsulfonylanilino)-6-(trifluoromethoxy)quinazolin-4-one]: the “TGI after 11 days” value came to 72%.
